Patent US8163771B2, “11 β-HSD1 modulators” (Exelixis, Inc., priority 2008, dated 2012)

Molecular target: T1, recombinant human 11 β-HSD1 (Homo sapiens, UniProt P28845)
T1 construct: made in house; host or cells: E. coli
Test: 11 β-HSD1 SPA Assay (Scintillation Proximity Assay)
Format: biochemical
Procedure: (§1) Inhibition of 11 βHSD1 by test compounds was assessed in vitro by a Scintillation Proximity Assay (SPA). The assay was carried out in a 384-well assay plate in a total well volume of 26 μl and contained a mixture of tritiated cortisone substrate (40 nM), NADPH cofactor (1 mM), inhibitor in serial dilutions ([…] to 10 μM), and purified E. coli-expressed recombinant human 11 βHSD1 (30-100 nM) in assay buffer (50 mM HEPES, 100 mM KCl, 5 mM NaCl, and 2 mM MgCl2, pH7.4). Following mixing, the plate was incubated for 2 hours at room temperature. Reactions were stopped by addition of 30 μl of protein A YSi SPA beads (10 mg/ml) that had been pre-incubated with glycyrrhetinic acid (1 mM) and a monoclonal cortisol antibody (3 μg/ml). The plate was then incubated overnight at room temperature prior to reading on a Microbeta counter. Percent inhibition of each compound was calculated based on the background and the maximal signals. Wells that contained substrate without compound or enzyme were used as the background signal, while the wells that contained substrate and enzyme without any compound were used as the maximal signal. The calculation of the IC50 values for the inhibitors was performed by Activity Base.
as §1, with “β-HSD1” for “βHSD1”

T1 sequence (P28845 whole entry): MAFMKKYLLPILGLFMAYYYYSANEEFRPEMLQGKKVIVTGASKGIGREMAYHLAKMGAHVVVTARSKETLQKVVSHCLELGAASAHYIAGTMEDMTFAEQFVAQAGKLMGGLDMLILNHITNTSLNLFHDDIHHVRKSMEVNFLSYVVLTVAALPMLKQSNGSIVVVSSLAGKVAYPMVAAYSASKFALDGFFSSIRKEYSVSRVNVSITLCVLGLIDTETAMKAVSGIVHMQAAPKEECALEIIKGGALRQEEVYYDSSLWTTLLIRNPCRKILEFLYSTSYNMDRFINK

CC(C)(Oc1ncc(Cl)cc1F)C(=O)N[C@H]1C[C@H]2CC[C@@H](C1)N2c1ccc(S(C)(=O)=O)cc1 [Example 195, 2-[(5-chloro-3-fluoropyridin-2-yl)oxy]-2-methyl-N-{8-[4-(methylsulfonyl)phenyl]-8-azabicyclo[3.2.1]oct-3-endo-yl}propanamide]
IC50: < 2000 nM

CC(C)(Oc1ccc(Cl)cc1Cl)C(=O)NC1CC2CCC(C1)N2c1ccc(C(=O)NC[C@H](O)C(F)(F)F)cn1 (stereo partly drawn) [Example 456, 6-(3-endo-{[2-(2,4-dichlorophenoxy)-2-methylpropanoyl]amino}-8-azabicyclo[3.2.1]oct-8-yl)-N-[(2S)-3,3,3-trifluoro-2-hydroxypropyl]pyridine-3-carboxamide]
IC50: < 200 nM

CC(C)(Oc1ccc(Cl)cc1Cl)C(=O)N[C@H]1C[C@H]2CC[C@@H](C1)N2c1ccc(C(=O)NCC(F)(F)F)cc1 [Example 110, 4-[3-endo-({2-[(2,4-dichlorophenyl)oxy]-2-methylpropanoyl}amino)-8-azabicyclo[3.2.1]oct-8-yl]-N-(2,2,2-trifluoroethyl)benzamide]
IC50: < 200 nM

C[C@@H](NC(=O)c1ccc(N2C3CCC2CC(NC(=O)C(C)(C)Oc2ccc(Cl)cc2C(F)(F)F)C3)nc1)C(F)(F)F (stereo partly drawn) [Example 412, 6-(3-endo-(2-(4-chloro-2-(trifluoromethyl)phenoxy)-2-methylpropanamido)-8-azabicyclo[3.2.1]octan-8-yl)-N-((R)-1,1,1-trifluoropropan-2-yl)nicotinamide]
IC50: < 200 nM

CC(C)(Oc1ccc(Cl)cc1Cl)C(=O)N[C@H]1C[C@H]2CC[C@@H](C1)N2Cc1cccc(C(N)=O)c1 [Example 291, 3-{[3-endo-({2-[(2,4-dichlorophenyl)oxy]-2-methylpropanoyl}amino)-8-azabicyclo[3.2.1]oct-8-yl]methyl}benzamide]
IC50: < 2000 nM

CC(C)(Oc1nccc2ccccc12)C(=O)N[C@H]1C[C@H]2CC[C@@H](C1)N2c1ccc(C(N)=O)cn1 [Example 339, 6-(3-endo-{[2-(isoquinolin-1-yloxy)-2-methylpropanoyl]amino}-8-azabicyclo[3.2.1]oct-8-yl)pyridine-3-carboxamide]
IC50: < 200 nM

CC(C)(Oc1nccc2ccccc12)C(=O)N[C@H]1C[C@H]2CC[C@@H](C1)N2c1ccc(C(=O)NCC(F)(F)F)cn1 [Example 354, 6-(3-endo-{[2-(isoquinolin-1-yloxy)-2-methylpropanoyl]amino}-8-azabicyclo[3.2.1]oct-8-yl)-N-(2,2,2-trifluoroethyl)pyridine-3-carboxamide]
IC50: < 200 nM

CC(C)(Oc1ccc(Cl)cc1S(C)(=O)=O)C(=O)N[C@H]1C[C@H]2CC[C@@H](C1)N2c1ccc(S(C)(=O)=O)cn1 [Example 324, 2-{[4-chloro-2-(methylsulfonyl)phenyl]oxy}-2-methyl-N-{8-[5-(methylsulfonyl)pyridin-2-yl]-8-azabicyclo[3.2.1]oct-3-endo-yl}propanamide]
IC50: < 2000 nM

CC(C)(Oc1c(F)cc(F)cc1F)C(=O)N[C@H]1C[C@H]2CC[C@@H](C1)N2c1ccc(S(N)(=O)=O)cn1 [Example 259, N-{8-[5-(aminosulfonyl)pyridin-2-yl]-8-azabicyclo[3.2.1]oct-3-endo-yl}-2-methyl-2-[(2,4,6-trifluorophenyl)oxy]propanamide]
IC50: < 200 nM

CC(C)(Oc1cccc2[nH]ccc12)C(=O)N[C@H]1C[C@H]2CC[C@@H](C1)N2c1ccc(C(=O)NCC(F)(F)F)cn1 [Example 366, 6-(3-endo-{[2-(1h-indol-4-yloxy)-2-methylpropanoyl]amino}-8-azabicyclo[3.2.1]oct-8-yl)-N-(2,2,2-trifluoroethyl)pyridine-3-carboxamide]
IC50: < 200 nM

CC(C)(Oc1ccc(F)cc1Cl)C(=O)N[C@H]1C[C@H]2CC[C@@H](C1)N2c1ccc(S(C)(=O)=O)nc1 [Example 275, 2-[(2-chloro-4-fluorophenyl)oxy]-2-methyl-N-{8-[6-(methylsulfonyl)pyridin-3-yl]-8-azabicyclo[3.2.1]oct-3-endo-yl}propanamide]
IC50: < 200 nM

CC(C)(Oc1cc(F)ccc1C(F)(F)F)C(=O)N[C@H]1C[C@H]2CC[C@@H](C1)N2c1ccc(C(N)=O)cn1 [Example 309, 6-{3-endo-[(2-{[5-fluoro-2-(trifluoromethyl)phenyl]oxy}-2-methylpropanoyl)amino]-8-azabicyclo[3.2.1]oct-8-yl}pyridine-3-carboxamide]
IC50: < 200 nM

CC(C)NC(=O)c1ccc(N2[C@@H]3CC[C@H]2C[C@@H](NC(=O)C(C)(C)Oc2ncc(Cl)cc2Cl)C3)nc1 [Example 400, 6-(3-endo-(2-(3,5-dichloropyridin-2-yloxy)-2-methylpropanamido)-8-azabicyclo[3.2.1]octan-8-yl)-N-isopropylnicotinamide]
IC50: < 200 nM

CC(C)(Oc1cc(F)c(Cl)cc1Cl)C(=O)N[C@H]1C[C@H]2CC[C@@H](C1)N2c1ccc(S(N)(=O)=O)cn1 [Example 261, N-{8-[5-(aminosulfonyl)pyridin-2-yl]-8-azabicyclo[3.2.1]oct-3-endo-yl}-2-[(2,4-dichloro-5-fluorophenyl)oxy]-2-methylpropanamide]
IC50: < 200 nM

CC(C)(Oc1ccc(-c2ccccc2)cc1Cl)C(=O)N[C@H]1C[C@H]2CC[C@@H](C1)N2c1ccc(C(N)=O)cn1 [Example 266, 6-[3-endo-({2-[(3-chlorobiphenyl-4-yl)oxy]-2-methylpropanoyl}amino)-8-azabicyclo[3.2.1]oct-8-yl]pyridine-3-carboxamide]
IC50: < 200 nM

CC(C)(Oc1ccc(Cl)cc1OC(F)F)C(=O)N[C@H]1C[C@H]2CC[C@@H](C1)N2c1ccc(C(=O)NCC(F)F)cn1 [Example 469, 6-[3-endo-({2-[4-chloro-2-(difluoromethoxy)phenoxy]-2-methylpropanoyl}amino)-8-azabicyclo[3.2.1]oct-8-yl]-N-(2,2-difluoroethyl)pyridine-3-carboxamide]
IC50: < 200 nM

CC(C)(Oc1ccc(F)cc1F)C(=O)N[C@H]1C[C@H]2CC[C@@H](C1)N2c1ccc(C(=O)NC2CC2)cn1 [Example 35, N-cyclopropyl-6-[3-endo-({2-[(2,4-difluorophenyl)oxy]-2-methylpropanoyl}amino)-8-azabicyclo[3.2.1]oct-8-yl]pyridine-3-carboxamide]
IC50: < 200 nM

CC(C)(Oc1ccccc1Cl)C(=O)N[C@H]1C[C@H]2CC[C@@H](C1)N2c1ccc(C(=O)NC2CC2)cn1 [Example 24, 6-[3-endo-({2-[(2-chlorophenyl)oxy]-2-methylpropanoyl}amino)-8-azabicyclo[3.2.1]oct-8-yl]-N-cyclopropylpyridine-3-carboxamide]
IC50: < 200 nM

CC(C)(Oc1c(Cl)cc(F)cc1C(F)(F)F)C(=O)N[C@H]1C[C@H]2CC[C@@H](C1)N2c1ccc(S(C)(=O)=O)cc1 [Example 252, 2-{[2-chloro-4-fluoro-6-(trifiuoromethyl)phenyl]oxy}-2-methyl-N-{8-[4-(methylsulfonyl)phenyl]-8-azabicyclo[3.2.1]oct-3-endo-yl}propanamide]
IC50: < 200 nM

CC(C)NC(=O)c1ccc(N2[C@@H]3CC[C@H]2C[C@@H](NC(=O)C(C)(C)Oc2ccc(Cl)c(F)c2)C3)nc1 [Example 84, 6-[3-endo-({2-[(4-chloro-3-fluorophenyl)oxy]-2-methylpropanoyl}amino)-8-azabicyclo[3.2.1]oct-8-yl]-N-(1-methylethyl)pyridine-3-carboxamide]
IC50: < 200 nM

C[C@@H](NC(=O)c1ccc(N2C3CCC2CC(NC(=O)C(C)(C)Oc2ccc(Cl)cc2C(F)F)C3)nc1)C(F)(F)F (stereo partly drawn) [Example 411, 6-(3-endo-(2-(4-chloro-2-(difluoromethyl)phenoxy)-2-methylpropanamido)-8-azabicyclo[3.2.1]octan-8-yl)-N-((R)-1,1,1-trifluoropropan-2-yl)nicotinamide]
IC50: < 200 nM

CC(C)(Oc1ccc(Cl)cc1Cl)C(=O)N[C@H]1C[C@H]2CC[C@@H](C1)N2c1ccc(NC(=O)NCC(F)(F)F)cc1Cl [Example 136, N-{8-[2-chloro-4-({[(2,2,2-trifluoroethyl)amino]carbonyl}amino)phenyl]-8-azabicyclo[3.2.1]oct-3-endo-yl}-2-[(2,4-dichlorophenyl)oxy]-2-methylpropanamide]
IC50: < 2000 nM

CC(C)(Oc1ccc(Cl)cc1Cl)C(=O)N[C@H]1C[C@H]2CC[C@@H](C1)N2c1ccc(NS(C)(=O)=O)cn1 [Example 101, 2-[(2,4-dichlorophenyl)oxy]-2-methyl-N-(8-{5-[(methylsulfonyl)amino]pyridin-2-yl}-8-azabicyclo[3.2.1]oct-3-endo-yl)propanamide]
IC50: < 200 nM
